Data reported in patent US5873359A, “Methods and devices for treating pulmonary vasoconstriction and asthma” (The General Hospital Corporation, priority 1994, dated 1999).

Experiments:
[1] = tested on: non-constricted human lung; test: 40 ppm NO in healthy volunteers breathing air (non-constricted lung); format: in vivo
Method: The effects of breathing 40 ppm NO were studied in five awake, healthy human volunteer subjects inhaling various gas mixtures for 10 min periods, with measurements starting at 6 min.

[2] = tested on: methacholine bronchoconstriction; test: Dose-response of intermittent NO inhalation during methacholine infusion; format: in vivo, Hartley strain guinea pigs
Method: Male Hartley strain guinea pigs (300-440g body wt) were anesthetized with α-chloralose (50 mg/kg) and urethane (500 mg/kg) (Drazen et al., J. Appl. Physiol. 48:613-618, 1980). A tracheostomy was performed, and the animals were intubated with a tubing adaptor (ID 1.65 mm) and ventilated with a small animal ventilator (Harvard Apparatus, a division of Ealing Scientific, Natick, Mass.) at 8 ml/kg and 60 breaths/min. A jugular vein was cannulated for intravenous administration of drugs. The chest was opened by bilateral excision of a portion of the ribs anteriorly so that the lungs were exposed to atmospheric pressure (Shore and Drazen, J. Appl. Physiol. 67:2504-2511, 1989). A positive end expiratory pressure of 3-4 cmH2 O was provided.
Guinea pigs were then placed inside a plethysmograph (Amdur and Mead, Am. J. Physiol. 192:363-368, 1958), that was connected to a large reservoir containing copper mesh to maintain the plethysmograph isothermal. Plethysmograph pressure was measured with a differential pressure transducer (Celesco, Canoga Park, Calif.); the opposite side of this transducer was connected to a similar reservoir. Pressure at the airway opening was measured from a side tap in the tracheal canula. Transpulmonary pressure was measured with a differential pressure transducer (Celesco) as the difference between airway opening pressure and the pressure inside the plethysmograph. Flow was obtained by electrical differentiation of the volume (plethysmograph pressure) signal. Tidal volume was measured by recording the pressure changes in the body plethysmograph. Volume, flow, and transpulmonary pressure signals were recorded on a strip chart (General Scanning, Watertown, Mass.). Pulmonary resistance and dynamic compliance were calculated by a computer program according to the method of von Neergard and Wirz (Z. Klin. Med. 105:35-50, 1927; Z. Klin. Med. 105:52-82, 1927).
The apparatus and conditions used are diagrammed in FIG. 7. The inspired gas was a precise mixture of nitrogen and oxygen blended via a Y piece tube and immediately diluted with nitric oxide (NO) to produce the correct inspired concentration in a 5 liter gas mixture bag. With volumetrically calibrated flowmeters, varying quantities of NO mixed with N2 were substituted for pure N2 to obtain the desired No concentration at an inspired oxygen concentration (FIO2) of 0.30-0.32. The total inflow gas rate was maintained at 2.5 l/min. The gas mixture was then sent via a 3 cm ID tube filled with 90 ml of soda lime to scavenge nitrogen dioxide (Stavert and Lehnert, Inhal. Toxicol. 2:53-67, 1990), then through a filter before the ventilator. Just after the ventilator inflow tube, a vacuum was adjusted to maintain the gas mixture bag nearly empty and continuously drive fresh gas into the ventilator circuit. The expiratory gas from the ventilator was scavenged with a vacuum and set up to maintain a positive end expiratory pressure of 3-4 cm H2 O. NO was obtained from Air Products and Chemicals, Inc. (Allentown, Pa.) as a mixture of 1,034 ppm NO in pure nitrogen. A chemiluminescence NO/NOx analysis (Fontijin et al., Anal. Chem. 42:575-579, 1970) was performed before and after the soda lime filled tube, and just before the inspiratory valve of the ventilator (see FIG. 7) to assess the nitrogen dioxide concentration and adjust the flowmeters to provide the different levels of NO concentration.
ii. Dose-response study of intermittent NO inhalation during methacholine infusion. After baseline measurements, the same guinea pigs were given an intravenous infusion of a potent bronchoconstrictor, methacholine, at a rate of 2.5-7.5 μg/kg/min in order to reach a medium level of bronchoconstriction (3 to 4 fold the baseline lung resistance). After a stable period, each animal was ventilated with a series of gas mixtures of 5, 10, 25, 50, 100 and 300 ppm NO for 10 minutes at constant FIO2 (0.30-0.32). […]

[3] = dilute aqueous solution exposed to oxygen; cited from earlier work
[4] = tested on: pulmonary hypertension in ARDS; test: Inhaled NO versus i.v. prostacyclin in adult with ARDS (first subject); format: in vivo, human; details: for QVA /QT: sulphur hexafluoride, from 38%
Method: First subject. The patient had suffered for three weeks from adult respiratory distress syndrome (ARDS) due to aspiration pneumonia. There was diffuse pulmonary edema and a large QVA /QT (30%). After 21 days of venovenous extracorporeal membrane oxygenator support (3 liters/min blood flow), the mean PAP was 55 mm Hg.
The short term effects of inhaled nitric oxide were compared with those of i.v. prostacyclin (PGI2; 5ng/kg/min). Mean pulmonary arterial pressure (PAP), right ventricular ejection fraction (RVEF) and gas exchange variables were evaluated. RVEF was assessed by thermodilution, and gas exchange alterations were analyzed using the multiple inert gas elimination technique (MIGET). MIGET and RVEF date were obtained on two different occasions. Ventilator settings were tidal volume 6 ml/kg, respiratory rate 14/min, Fi O2 0.4-0.48 and 5 cm H2 O of PEEP (positive end expiratory pressure).

[5] = air (21% O2) + 40 ppm NO, n = 5, X ± S.D.
[6] = NO-containing gas mixtures (FIGS. 9-12)

In the case of [N]=O [NO, nitric oxide], the “pulmonary or systemic vasodilatory effect” value ([1]; 40 ppm NO, normal (21% v/v) O2) is reported as “no pulmonary or systemic vasodilatory effect”, the PVR ([1]; air (21% O2) + 40 ppm NO, n = 5) is reported as 0.61 mmHg · min/l and the CO [1, 5] is reported as 6.40 ± 0.88 L/min. It also gave a CVP [1, 5] of 6.3 ± 1.7 mmHG, an MAP [1, 5] of 88.0 ± 3.7 mmHg and a PAP [1, 5] of 14.0 ± 1.8 mmHg. The PCWP [1, 5] was 10.1 ± 2.5 mmHg, the PaCO2 [1, 5] was 38 ± 5 mmHg and the PaO2 [1, 5] was 94.7 ± 16.3 mmHg. The SaO2 [1, 5] was 96.0 ± 1.0%, the bronchodilation ([2]; 5 ppm NO) was “produced bronchodilation” and the airway resistance ([2]; 100 or 300 ppm NO) was “greater and more rapid reduction of airway resistance”. For the same compound, the “reversal of methacholine bronchoconstriction” value ([2]; 300 ppm NO) was “Complete reversal of methacholine bronchoconstriction”, the lung compliance [2, 6] was “increase of lung compliance” and the lung resistance [2, 6] was “consistent, rapid and profound reduction of lung resistance”. The onset of dilation ([2]; after inhalation) was “within a few seconds”, the “reversal of methacholine bronchoconstriction” value ([2]; nitric oxide inhalation) was “reversed the profound bronchoconstriction” and the half life [3] was “less than 10 seconds”. The “decrease of mean PAP” value ([4]; 18 ppm NO in oxygen) was 12-14 mm Hg, the “mean PAP” value ([4]; 18 ppm NO in oxygen) was 38-42 mm Hg and the “reduction of PVR” value ([4]; 18 ppm NO in oxygen) was 44%. For the same compound, the wedge pressure ([4]; 18 ppm NO in oxygen, remaining constant) was about 15 mm Hg, the cardiac output ([4]; 18 ppm NO in oxygen, unchanged) was about 7 L/min and the “QVA /QT” value ([4]; 18 ppm NO) was 26%. The “QVA /QT” value ([4]; 36 ppm NO) was 33%, the additional vasodilation ([4]; increasing NO concentration to 36 ppm) was 2-5 mm Hg and the “change of systemic arterial pressure” value ([4]; inhaled NO) was “no change of systemic arterial pressure”. The “PAP and RVEF” value ([4]; inhaled NO and i.v. PGI2, text) was “lowered PAP and improved RVEF”, the “PaO2, right-to-left shunt and VD /VT” value ([4]; inhaled NO, in contrast to PGI2) was “increased PaO2 and decreased right-to-left shunt and VD /VT” and the MAP ([4]; occasion #1, NO 18 ppm) was 78 mm Hg. It also gave a PAP ([4]; occasion #1, NO 18 ppm) of 42 mm Hg, a PCWP ([4]; occasion #1, NO 18 ppm) of 15 mm Hg and a PaO2 ([4]; occasion #1, NO 18 ppm) of 146 torr. For the same compound, the “QA /QT” value ([4]; occasion #1, NO 18 ppm) was 26%, the “VD /VT” value ([4]; occasion #1, NO 18 ppm) was 43% and the “low VD /Q” value ([4]; occasion #1, NO 18 ppm) was 1%. The MAP ([4]; occasion #1, NO 36 ppm) was 75 mm Hg, the PAP ([4]; occasion #1, NO 36 ppm) was 37 mm Hg and the PCWP ([4]; occasion #1, NO 36 ppm) was 15 mm Hg. For the same compound, the PaO2 ([4]; occasion #1, NO 36 ppm) was 127 torr, the “QA /QT” value ([4]; occasion #1, NO 36 ppm) was 33% and the “VD /VT” value ([4]; occasion #1, NO 36 ppm) was 40%. The “low VD /Q” value ([4]; occasion #1, NO 36 ppm) was 0%, the MAP ([4]; occasion #2, NO 18 ppm) was 88 mm Hg and the PAP ([4]; occasion #2, NO 18 ppm) was 38 mm Hg. The PCWP ([4]; occasion #2, NO 18 ppm) was 14 mm Hg, the PaO2 ([4]; occasion #2, NO 18 ppm) was 127 torr and the RVEF ([4]; occasion #2, NO 18 ppm) was 36%. The MAP ([4]; occasion #2, NO 36 ppm) was 86 mm Hg, the PAP ([4]; occasion #2, NO 36 ppm) was 36 mm Hg and the PCWP ([4]; occasion #2, NO 36 ppm) was 12 mm Hg. For the same compound, the PaO2 ([4]; occasion #2, NO 36 ppm) was 113 torr and the RVEF ([4]; occasion #2, NO 36 ppm) was 39%.
